# Measurements taken from patent US12522593B2, “Azacycloalkyl carbonyl cyclic amine compound” (Alivexis, Inc., priority 2022, dated 2026).
# Where a name gives a salt, the structure may show the parent alone.
# Columns and labels:
# CTSC in U937 cells = CTSC in U937 cells (Homo sapiens (Human), UniProt P53634); assay: Intracellular CTSC inhibition assay (in vitro), LLOMe-induced cell death in U937 cells; format: cell-based; conditions: 3 hours culture, CellTiter-Glo
# Description: 2. Intracellular CTSC Inhibition Assay (In Vitro)
# A test specimen was evaluated by a degree of cell death in a case where a substrate LLOMe (L-Leucyl-L-Leucine methyl ester, hydrobromide salt, Sigma, 555045152) was added to U937 cells. The LLOMe is taken up into the cells by endocytosis and cleaved by CTSC. A product thereof induces lysosomal damage in cells and causes cell death in leukocytes and the like. Therefore, since the degree of cell death correlates with an amount of degradation of LLOMe, that is, with CTSC activity, by quantitatively analyzing the cell death, CTSC inhibitory activity of the test specimen in the cell was determined. CTSC inhibition assay was performed using a polystyrene-made white 384 well plate.
# As the test specimen, a stock solution dissolved in DMSO was prepared so as to be 0.2 mmol/L, and in a case where a solution in which the stock solution was diluted 50-fold with a RPMI-1640 medium including 10% FBS was used as the maximum evaluation concentration (4000 nmol/L), a serially diluted solution was prepared by diluting the solution 3-fold with the medium. Thereafter, a 4-fold concentrated test specimen solution with the target final concentration was prepared.
# U937 cells were cultured in a RPMI-1640 medium including 10% FBS, and diluted to prepare 90,000 cells/mL of cell suspension on the day of assay. 10 μL of the cell suspension was seeded per well. Next, 10 μL of the test specimen solution having a concentration 4 times the target final concentration was added thereto, and the mixture was allowed to stand for 30 minutes. Thereafter, 20 μL of a 300 μmol/L LLOMe solution dissolved in a RPMI-1640 medium including 10% FBS was added thereto, and the cells were cultured for 3 hours. After completion of the culture, 40 μL of CellTiter-Glo (registered trademark) reagent (Promega, G7570) was added to each well and mixed. After 15 minutes, 20 μL of the reaction solution in each well was transferred to a white 384 well plate, and a chemiluminescence intensity was measured with a plate reader. A 4-parameter regression analysis was performed with GraphPad Prism (manufactured by GraphPad Software) from a plot of the luminescence intensity and the sample concentration, and an IC50 value was calculated.
# Results of test compounds of Formula (1) are shown in Table 2 as IC50 (nM) values for which 50% inhibition concentration is calculated based on CTSC inhibition (%). In the table, Ex indicates an example number.
# human recombinant CTSC = human recombinant CTSC (Homo sapiens (Human), UniProt P53634); assay: CTSC inhibition assay (in vitro), fluorescent substrate GF-AFC; format: biochemical; conditions: 30 μmol/L GF-AFC, pH 5.0, 25° C.
# Description: 1. CTSC Inhibition Assay (In Vitro)
# A test specimen was evaluated by a CTSC inhibition assay using a fluorescent substrate GF-AFC (Gly-Phe-7-Amino-4-trifluoromethylcoumarin, MP Biomedical, 03AFC03325). Since the GF-AFC is converted by CTSC to aminotrifluoromethylcoumarin having a specific fluorescence wavelength and the produced amount is proportional to CTSC activity, quantitative analysis was performed by measuring a fluorescence intensity with a plate reader. CTSC inhibition assay for each compound was performed using a polystyrene-made non-adhesive surface-treated black 384 well plate under the following conditions.
# A human recombinant CTSC (R&D systems, 1071-CY) was dissolved in a CTSC active cocktail (20 ng/mL of human recombinant cathepsin L (R&D systems, 952-CY, 25 mmol/L MES/NaOH (pH: 6.0), 5 mmol/L dithiothreitol (DTT)) so as to be 100 ng/mL and incubated at 18° C. for 30 minutes. The solution was diluted with a CTSC assay buffer (50 mmol/L MES/NaOH (pH: 5.0), 50 mmol/L NaCl, 0.001% Triton X-100, mmol/L DTT) so as to be 2 ng/mL in a case of performing CTSC inhibition assay.
# The test specimen was dissolved in dimethylsulfoxide (DMSO) at 10 mmol/L to prepare a stock solution. In a case where a solution in which the stock solution was diluted 15-fold with DMSO was used as the maximum evaluation concentration (0.667 mmol/L), 5-fold dilution was repeated in DMSO from the solution to prepare a serially diluted solution. 248.8 μL of the CTSC assay buffer was added to 1.12 μL of the serially diluted sample prepared in the DMSO to prepare a solution of a CTSC inhibition assay compound.
# The final composition of the CTSC inhibition assay mixture was 0.66 ng/mL activated CTSC, 50 mmol/L MES/NaOH (pH: 5.0), 50 mmol/L NaCl, 0.001% Triton X-100, 5 mmol/L DTT, 30 μmol/L GF-AFC, and 0.15% DMSO, and the procedure was as follows. That is, 4 μL of the compound solution and 4 μL of the 2 ng/mL activated CTSC solution were mixed with each other in a 384 well plate and incubated at 25° C. for 30 minutes. Thereafter, 4 μL of the GF-AFC solution dissolved in the CTSC assay buffer was added to the mixture so as to be 90 μmol/L. After mixing to be uniform, a fluorescence emission intensity at 505 nm in a case of being excited at 390 nm after incubating at 25° C. for 1 hour was measured with a plate reader. A 4-parameter regression analysis was performed with GraphPad Prism (manufactured by GraphPad Software) from a plot of the fluorescence intensity at 505 nm and the sample concentration, and an IC50 value was calculated.
# Results of test compounds of Formula (I) are shown in Table 1 as IC50 (nM) values for which 50% inhibition concentration is calculated based on CTSC inhibition (%). In the table, Ex indicates an example number.
# Chain of human recombinant CTSC (P53634 25-134): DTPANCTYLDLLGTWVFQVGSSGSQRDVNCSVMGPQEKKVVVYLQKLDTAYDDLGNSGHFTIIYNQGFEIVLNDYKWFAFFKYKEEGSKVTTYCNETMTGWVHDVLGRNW
# Chain of human recombinant CTSC (P53634 231-394): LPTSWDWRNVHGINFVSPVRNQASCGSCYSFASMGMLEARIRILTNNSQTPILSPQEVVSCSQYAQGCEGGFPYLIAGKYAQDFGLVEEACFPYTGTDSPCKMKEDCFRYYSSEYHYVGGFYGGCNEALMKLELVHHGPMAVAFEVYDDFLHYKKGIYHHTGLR
# Chain of human recombinant CTSC (P53634 395-463): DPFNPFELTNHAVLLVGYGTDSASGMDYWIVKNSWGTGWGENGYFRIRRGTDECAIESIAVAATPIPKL
# Chain of CTSC in U937 cells (P53634 25-463): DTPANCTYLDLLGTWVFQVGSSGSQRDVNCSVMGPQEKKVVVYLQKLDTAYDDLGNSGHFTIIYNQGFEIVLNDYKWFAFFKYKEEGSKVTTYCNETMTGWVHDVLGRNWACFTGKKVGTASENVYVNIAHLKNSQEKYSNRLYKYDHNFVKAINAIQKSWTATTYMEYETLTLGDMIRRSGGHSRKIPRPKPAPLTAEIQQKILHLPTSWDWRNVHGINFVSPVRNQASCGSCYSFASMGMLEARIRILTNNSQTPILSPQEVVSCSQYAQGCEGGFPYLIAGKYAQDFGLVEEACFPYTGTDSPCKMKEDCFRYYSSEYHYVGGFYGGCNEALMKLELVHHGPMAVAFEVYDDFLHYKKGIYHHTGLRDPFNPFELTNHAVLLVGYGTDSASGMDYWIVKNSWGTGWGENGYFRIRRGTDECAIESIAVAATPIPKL
IC50 (human recombinant CTSC) [nM],SMILES,IC50 (CTSC in U937 cells) [nM]
1.19,CC(C)C1(c2noc(C3CCC(F)(F)CC3)n2)CN(C(=O)[C@@H]2C[C@@H](O)C3(CCC3)CN2)C1 [Example 6],1.06
2.21,CN(C)C1(c2nc(C3CC(F)(F)C3)no2)CCN(C(=O)[C@@H]2C[C@@H](O)C3(CCC3)CN2)CC1 [Example 75],5.01
39.3,O=C([C@@H]1CC[C@@]2(CCO2)CN1)N1CCC(c2nc(C3CC(F)(F)C3)no2)(C(F)(F)F)CC1 [Example 10],162
2.62,CC(NC(=O)C1(C(F)(F)F)CCN(C(=O)[C@@H]2CC[C@@]3(CCO3)CN2)CC1)C1CCC(F)(F)CC1 (some centres unmarked) [Example 33],7.5
1.63,"CC(C)C1(c2nc(C3CC(F)(F)C3)no2)CCN(C(=O)[C@@H]2C[C@@H](O)C3(CCC3)CN2)CC1 [Example 1, (4-(3-(3,3-Difluorocyclobutyl)-1,2,4-oxadiazol-5-yl)-4-isopropylpiperidin-1-yl)((7S,9R)-9-hydroxy-6-azaspiro[3.5]nonan-7-yl)methanone]",0.49
3.61,O=C([C@@H]1C[C@@H](O)C2(CCC2)CN1)N1CCC(c2noc(C3CCCCO3)n2)(C(F)(F)F)CC1 (some centres unmarked) [Example 59],0.7
2.51,O=C([C@@H]1CC[C@@]2(CCO2)CN1)N1CCC(C(=O)NCC2CCC(F)(F)CC2)(C(F)(F)F)CC1 [Example 85],4.12
> 100,CC1CC[C@@H](C(=O)N2CCC(c3noc(C4CCC(F)(F)CC4)n3)(C(C)C)CC2)NC1 (some centres unmarked) [Example 43],57.3
1.89,O=C([C@@H]1C[C@@H](O)C2(CCC2)CN1)N1CCC(c2nnn(-c3ccc(F)c(F)c3)n2)CC1 [Example 96],0.37
0.24,CC(C)C1(C(=O)NCC2CCC(F)(F)CC2)CN(C(=O)[C@@H]2CC[C@@]3(CCO3)CN2)C1 [Example 27],133
1.88,CC1(c2nc(C3(C(F)(F)F)CCN(C(=O)[C@@H]4C[C@@H](O)C5(CCC5)CN4)CC3)no2)CC(F)(F)C1 [Example 45],0.17
6.39,O=C([C@@H]1C[C@@H](O)C2(CCC2)CN1)N1CCC(c2noc(C3CCCO3)n2)(C(F)(F)F)CC1 (some centres unmarked) [Example 62],1.62
1.43,CC(C)C1(c2noc(C3CCC(F)(F)CC3)n2)CCN(C(=O)[C@@H]2CC[C@@]3(CCO3)CN2)CC1 [Example 86],1.06
4.43,C[C@]1(F)C[C@H](c2nc(C3(C(F)(F)F)CCN(C(=O)[C@@H]4C[C@@H](O)C5(CCC5)CN4)CC3)no2)C1 [Example 49],0.35
0.83,CC(C)C1(C(=O)NCC2CCC(F)(F)CC2)CN(C(=O)[C@@H]2C[C@@H](O)C3(CCC3)CN2)C1 [Example 20],227
8.16,O=C([C@@H]1C[C@@H](O)C2(CCC2)CN1)N1CCC(C(=O)N2CC[C@@H](C(F)(F)F)C2)(C(F)(F)F)CC1 [Example 52],10.2

IC50 (human recombinant CTSC) [nM],SMILES,IC50 (CTSC in U937 cells) [nM]
187,CC1(O)CC[C@@H](C(=O)N2CCC(c3noc(C4CC(F)(F)C4)n3)(C(F)(F)F)CC2)NC1 (some centres unmarked) [Example 76],> 111
0.93,CC(C)C1(c2noc(C3CCC(F)(F)CC3)n2)CCN(C(=O)[C@@H]2C[C@@H](O)C3(CCC3)CN2)CC1 [Example 82],0.25
0.37,O=C([C@@H]1C[C@@H](O)C2(CCC2)CN1)N1CCC(c2nccc(N3CCC(F)(F)CC3)n2)CC1 [Example 94],3.86
2.06,"CC1(C)CN[C@H](C(=O)N2CCC(c3noc(C4CCC(F)(F)CC4)n3)(C(F)(F)F)CC2)C[C@H]1O [Example 56, (4-(5-(4,4-Difluorocyclohexyl)-1,2,4-oxadiazol-3-yl)-4-(trifluoromethyl)piperidin-1-yl)((2S,4R)-4-hydroxy-5,5-dimethylpiperidin-2-yl)methanone]",0.71
3.57,CC1(C)CN[C@H](C(=O)N2CCC(c3nc(C4CCC(F)(F)CC4)no3)(C(F)(F)F)CC2)C[C@H]1O [Example 57],0.55
3.17,"CC(C)C1(c2nnc(C3CCC(F)(F)CC3)o2)CN(C(=O)[C@@H]2C[C@@H](O)C3(CCC3)CN2)C1 [Example 16, (3-(5-(4,4-difluorocyclohexyl)-1,3,4-oxadiazol-2-yl)-3-isopropylazetidine-1-yl)((7S,9R)-9-hydroxy-6-azaspiro[3.5]nonan-7-yl)methanone trifluoroacetate]",19.2
10.4,CN(CC1CCC(F)(F)CC1)C(=O)C1(C(F)(F)F)CCN(C(=O)[C@@H]2CC[C@@]3(CCO3)CN2)CC1 [Example 7],23.6
0.84,O=C([C@@H]1C[C@@H](O)C2(CCC2)CN1)N1CCC(c2ccnc(N3CCC(F)(F)CC3)c2)CC1 [Example 91],0.54
3.25,"O=C([C@@H]1C[C@@H](O)C2(CCC2)CN1)N1CCC(c2nnn(C3CC(F)(F)C3)n2)(C(F)(F)F)CC1 [Example 67, (4-(2-(3,3-Difluorocyclobutyl)-2H-tetrazol-5-yl)-4-(trifluoromethyl)piperidin-1-yl)((7S,9R)-9-hydroxy-6-azaspiro[3.5]nonan-7-yl)methanone]",1.41
3.28,O=C([C@@H]1CC[C@@]2(CCO2)CN1)N1CCC(c2noc(C3CCC(F)(F)CC3)n2)(C(F)(F)F)CC1 [Example 73],4.05
1.03,O=C([C@@H]1C[C@@H](O)C2(CCC2)CN1)N1CCC(C(=O)NCC2CCC(F)(F)CC2)(C(F)(F)F)CC1 [Example 22],20.8
> 200,CC(C)C1(c2noc(C3CCC(F)(F)CC3)n2)CCN(C(=O)[C@H]2N[C@@H]3CC[C@H]2C3)CC1 [Example 26],474
4.34,"CC1(C)CN[C@H](C(=O)N2CCC(c3nnn(-c4ccc(F)cc4)n3)CC2)C[C@H]1O [Example 90, (4-(2-(4-Fluorophenyl)-2H-tetrazol-5-yl)piperidin-1-yl)((2S,4R)-4-hydroxy-5,5-dimethylpiperidin-2-yl)methanone]",0.54
254,CS[C@@H]1CN[C@H](C(=O)N2CCC(c3noc(C4CCC(F)(F)CC4)n3)(C(C)C)CC2)C1 [Example 28],596
2.55,CC(C)C1(c2noc(C3CCC3)n2)CCN(C(=O)[C@@H]2C[C@@H](O)C3(CCC3)CN2)CC1 [Example 58],0.56
